Experimental data as given in ChEMBL document CHEMBL1144795, “Design of high-affinity peptide conjugates with optimized fluorescence quantum yield as markers for small peptide transporter PEPT1 (SLC15A1)” (Bioorg Med Chem Lett, 2008).

Target: T1, Solute carrier family 15 member 1 (Homo sapiens) (UniProt P46059)
T1 sequence (whole entry): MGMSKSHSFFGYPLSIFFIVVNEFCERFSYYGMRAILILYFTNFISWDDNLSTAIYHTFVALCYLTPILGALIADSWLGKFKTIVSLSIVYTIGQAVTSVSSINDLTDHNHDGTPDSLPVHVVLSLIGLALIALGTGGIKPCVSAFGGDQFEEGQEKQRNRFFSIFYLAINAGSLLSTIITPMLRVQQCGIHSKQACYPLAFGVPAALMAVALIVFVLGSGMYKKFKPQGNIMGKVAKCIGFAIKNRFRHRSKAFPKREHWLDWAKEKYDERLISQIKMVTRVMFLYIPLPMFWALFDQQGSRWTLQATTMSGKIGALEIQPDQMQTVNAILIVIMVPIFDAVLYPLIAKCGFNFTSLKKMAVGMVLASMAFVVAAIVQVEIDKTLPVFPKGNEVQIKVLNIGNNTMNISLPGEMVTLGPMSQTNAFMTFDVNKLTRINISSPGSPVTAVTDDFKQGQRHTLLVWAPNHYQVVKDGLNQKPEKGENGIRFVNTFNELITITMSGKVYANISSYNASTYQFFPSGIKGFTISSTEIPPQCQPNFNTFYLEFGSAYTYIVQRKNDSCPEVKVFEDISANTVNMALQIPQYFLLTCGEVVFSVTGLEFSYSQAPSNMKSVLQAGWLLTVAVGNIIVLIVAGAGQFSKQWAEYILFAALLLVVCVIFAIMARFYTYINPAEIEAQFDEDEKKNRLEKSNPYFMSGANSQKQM
Assay: Inhibition of human PEPT1-mediated [3H]GlySar uptake in CHO cells at 1 mM
Assay type: cell-based

**Q.** With `Cc1c(CC(=O)NCCCC[C@H](N)C(=O)N[C@@H](C)C(=O)O)c(=O)oc2cc(N)c(S(=O)(=O)O)cc12` as the compound, how does the inhibition read?
**A.** < 22%

**Q.** For `Cc1c(CC(=O)NCCCC[C@H](N)C(=O)N[C@H](C(=O)O)C(C)C)c(=O)oc2cc(N)c(S(=O)(=O)O)cc12`, which inhibition is on record?
**A.** 40%

**Q.** `Cc1c(CC(=O)NCCCC[C@H](N)C(=O)N[C@@H](CO)C(=O)O)c(=O)oc2cc(N)c(S(=O)(=O)O)cc12` was tested. Which inhibition did it give?
**A.** < 22%
